Test [1] has as its target T1, human farnesyl transferase (Homo sapiens, UniProt P49354+P49356).
T1 construct: human farnesyl transferase purified from THP1 cell cultures; endogenous in cells; host or cells: THP1
The experiment in a line: Inhibition of farnesyl transferase and of farnesylation of the Ras protein ([3H]farnesyl transfer from [3H]FPP to p21 H-Ras). The note with it: p21 H-Ras substrate, 20 min at 37° C., 9 concentrations; read-out: Inhibitory activity IC50. The test is classed as biochemical. As for the experimental part: Farnesyl transferase activity is determined by the quantity of [^3 H]farnesyl transferred from [^3 H]farnesyl pyrophosphate ([^3 H]FPP) to the p21 H-Ras protein. The standard reaction mixture is composed, for a final volume of 60 μl, of 50 mM Tris-HCl, 5 mM MgCl2, 5 mM dithiothreitol, 0.2% octyl β-D-glucopyranoside, 200 picomol p21 H-Ras, 4.5 picomol [^3 H]FPP (activity 61000 dpm/picomol).
Reaction is initiated by adding approximately 5 ng of human farnesyl transferase purified from THP1 cell cultures. After incubation for 20 minutes at 37° C. in a microtitration plate containing 96 1-cm^3 wells per plate (Titer Plate®, Beckman), the reaction is stopped by adding 0.4 cm^3 of 0.1% SDS in methanol at 0° C. The mixture is then treated with 0.4 cm^3 of 30% trichloroacetic acid (TCA) in methanol. The plates are left in ice for 1 hour. The precipitated contents are then retained on Filtermat®, Pharmacia) glass fibre membranes with the filtration unit (Combi Cell Harvester®, Skatron), and rinsed with 6% trichloroacetic acid in distilled water. The membranes are dried in a microwave oven, then impregnated with scintillation medium by melting of Meltilex® (Pharmacia) under hot air, and lastly counted in cpm in a β-Plate counter® (LKB). Each test is repeated 3 times.
The unit of activity is defined as 1 picomole of [^3 H]FPP transferred to p21 H-Ras in 20 minutes.
The percentage inhibition values are obtained by comparison of the tests with and without inhibitor after deduction of blanks, the IC50 values being measured on the basis of the inhibitions obtained with 9 different concentrations using Enzfitter® or Grafit® software.

Test [2] relates to farnesylation of the Ras protein in THAC cells (CCL 39 cells transfected with activated Ha-Ras). The experiment in a line: Activity against cells: inhibition of farnesylation of the Ras protein in THAC cells (Western blot). Format: cell-based. The note with it: CCL39, 24 h at 37° C. How it is done: The activity against cells can be determined in the following way:
The cell line is the THAC line (CCL 39 cells transfected with activated Ha-Ras) according to K. Seuwen et al., EMBO J., 7(1) 161-168 (1988). The cells are cultured in Petri dishes with a diameter of 6 cm containing a DMEM medium, 5% foetal calf serum and 1% G418.
After culturing for 24 hours, the culture medium is changed (with or without the serum) and the product to be studied is added in solution in dimethylformamide (DMF), in the presence or in the absence of DTT (final concentrations of 0.5% in DMF and 0.1 mM in DTT). After culturing for 24 hours at 37° C., the cells are lysed in 1 cm^3 of lysis buffer (20 mM Tris, HCl, 1% Triton X114, 5 mM MgCl2, 7 mM DTT, 150 mM NaCl, pH=7.4). The lysates are clarified by centrifuging at 4000 revolutions/minute for 10 minutes. […] The radioactivity of the bands corresponding to farnesylated Ras and to non-farnesylated Ras makes it possible to determine the percentage of inhibition of farnesylation of the Ras protein.

For orientation: IC50 means the concentration needed to halve the response being measured. The inhibition is the relative decrease from the control value, in per cent. Low values mean little suppression, high ones strong suppression.

With `COC(=O)[C@H](CCSC)NC(=O)c1ccc(NC[C@@H](N)CS)c2ccccc12` [Example 2, methyl ester of N-[4-(2(R)-amino-3-mercaptopropylamino)naphthyl-1-carbonyl]-L-methionine], the concentration for half-maximal inhibition (IC50) in test [1] came to 100 nM. In addition, the inhibition at 10 µM in test [2] was 40%.
As for `CSCC[C@H](NC(=O)c1cc(NC[C@@H](N)CS)cc2ccccc12)C(=O)O` [Example 4, N-[3-(2(R)-amino-3-mercaptopropylamino)naphthyl-1-carbonyl]-L-methionine], the IC50 in test [1] came out at 31 nM.
Regarding `COC(=O)[C@H](CCSC)NC(=O)c1cc(NC[C@@H](N)CS)cc2ccccc12` [Example 5, methyl ester of N-[3-(2(R)-amino-3-mercaptopropylamino)naphthyl-1-carbonyl]-L-methionine], the IC50 in test [1] is 300 nM.
Still for that read-out and setting: under `CSCC[C@H](NC(=S)c1cc(NC[C@@H](N)CS)cc2ccccc12)C(=O)O` [Example 6, N-[3-(2(R)-amino-3-mercaptopropylamino)naphthyl-1-thiocarbonyl]-L-methionine] stands 55 nM.
For `CSCC[C@H](NC(=O)c1ccc(NC[C@@H](N)CS)c2ccccc12)C(=O)O` [Example 1, N-[4-(2(R)-amino-3-mercaptopropylamino)naphthyl-1-carbonyl]-L-methionine], the half-maximal inhibitory concentration (IC50) in test [1] was 23 nM.

Source of the values: patent US5889053A, “Farnesyl transferase inhibitors, preparation thereof and pharmaceuticals compositions containing said inhibitors” (Rhone-Poulenc Rorer S.A., priority 1995, dated 1999).
